Experimental data published in patent US20220267753A1, “RATIONAL THERAPEUTIC TARGETING OF ONCOGENIC IMMUNE SIGNALING STATES IN MYELOID MALIGNANCIES VIA THE UBIQUITIN CONJUGATING ENZYME UBE2N” (CHILDREN'S HOSPITAL MEDICAL CENTER, priority 2019, published 2022).

How the values were obtained:
MOLM-13 cells = assay: Ubiquitin-enrichment screen by mass spectrometry; type: cell-based, human; details: 2 μM
Experimental: Details of the ubiquitin-enrichment screen are described herein. Briefly, MOLM-13 cells were treated for 24 hr. with 2 μM of UC-764864. Ubiquitin-related peptide enrichment was performed by using ubiquitin remnant motif (K-ε-GG) antibody-conjugated beads (Cell Signaling Technology, Danvers, Mass.) following the manufacturer's instructions. Tryptic peptides were loaded onto the beads, and then ubiquitin-conjugated peptides were eluted from the bead. Nanoliquid chromatography coupled to electrospray tandem mass spectrometry (nanoLC-ESI-MS/MS) analyses were performed on a TripleTof 5600+ mass spectrometer (Sciex; Concord, Ontario, Canada) coupled with a nanoLC-ultra nanoflow system (Eksigent; Dublin, Calif.) in data dependent acquisition (DDA) or data independent acquisition (DIA) modes for Sequential Window Acquisition of all Theoretical mass spectra (SWATH-MS) analysis.
MOLM-13 cells were treated for 24 hours with 2 μM of UC-764864. […] To reduce redundant peptide sequencing, former MS/MS-analyzed candidate ions were excluded after its first occurrence for 12 s. The DDA data was recorded using Analyst-1T (v.1.7) software. […]

Cord Blood CD34+ = assay: Cell proliferation MTS assay; type: cell-based, human
Experimental: AML cell lines (5×10^3 cells/well) were seeded in 96-well plates and grown for 24 to 96 h in serum (10%)-containing medium in the presence or absence of inhibitors at the indicated concentrations. Proliferation was analyzed by means of an MTS assay using the CellTiter 96 Aqueous One Solution Cell Proliferation Assay (Promega, Madison, Wis., USA), according to the manufacturer's instructions. Data are mean with standard deviation from three independent experiments in technical triplicates. For the screening of 160 compounds from the UC library, the cell metabolic activity was assessed at 24 hours of treatment of MOLM-13 cells. Top 15 candidates were re-screened at 2 μM, and the cell metabolic activity was determined at 24 hours of treatment. In certain experiments, cell viability was determined by staining the cells with trypan blue at a 1/2 dilution and counting total number of viable cells upon treatment with UC-764864 or DMSO control. The cells were counted daily for 4 days using an automated cell counter (Countess II FL from Life Technologies). […] UC-764864 was added at the indicated concentrations and cells were incubated with drug for 3 days, at which point cell viability was measured by MTS according to manufacturer's instructions.

CCc1ccc(C(=O)C=CSc2nc3ccc(C)cc3[nH]2)cc1 [UC-764864, 1-(4-ethylphenyl)-3-[(6-methyl-1H-benzimidazol-2-yl)sulfanyl]prop-2-en-1-one]
ubiquitination levels of other Ub-conjugating enzymes (MOLM-13 cells; MOLM-13): did not significantly alter
ubiquitination of UBE2N at Lys-92 (MOLM-13 cells; MOLM-13, P<0.01): significantly reduced
proliferation capacity of cord blood CD34+ cells (Cord Blood CD34+): did not affect
IC50 (Cord Blood CD34+; Homo sapiens, Cord Blood CD34+, MTS, 24 hours): > 10 µM
